One series deals with EAE in Lewis rats. The series can be described thus: EAE in Lewis rats injected with gpMBP in CFA, treatment with saline solution of octamer or monomer. The series is classed as in vivo. Particulars: 4 and 8 days after gpMBP-CFA. The text has this: Experimental autoimmune encephalomyelitis (EAE) in the rat is an acute paralytic disease from which most animals spontaneously recover. The disease can be induced in susceptible inbred Lewis and DA rats with myelin basic protein (MBP), or encephalitogenic MBP peptides administered in complete Freund's adjuvant (CFA). The disease can be adoptively transferred to syngeneic recipients with primed T cells that have been reactivated in vitro with antigen. Studies of EAE in susceptible rats have provided many important insights into the interactions of T cells and accessory cells that culminate in the induction of the autoimmune response.
The influence of a saline solution of the 72-85gpMBP octamer on the course of EAE in Lewis rats previously injected with gpMBP emulsified in CFA was investigated. We injected 10 or 50 micrograms of the 72-85 gpMBP octamer into Lewis rats 4 and 8 days after they had been injected with gpMBP-CFA. […] Rats that received an equivalent amount of the 72-85 amino acid gpMBP peptide monomer at day 4 and day 8 developed clinical signs of disease.

The next series concerns EAE in SJL mice. The series can be described thus: EAE in SJL mice immunized with PLP(139-151) in CFA (139CFA), treatment after immunization before disease. The series is classed as in vivo. The note with it: for development of clinical signs of EAE: intraperitoneal or subcutaneous, days 2, 7 and 10 after 139CFA. From the text:
For all of these studies, MAP octamers of the 139-151aa peptide of proteolipid protein (PLP) were used and prepared by solid phase peptide synthesis as described above in the Materials and Methods. Each PLP(139-151) MAP octamer is comprised of eight polypeptide chains of the 139-151 aa of PLP each covalently linked to a central core as shown in FIG. 1. The general structure of the MAP (FIG. 1) is therefore dissimilar to the linear array typical of the peptide multimers used by others in the prior art (Falk, Rotzschke et al. 2000; Falk, Rotzschke et al. 2000; Stienekemeier, Falk et al. 2001). MAPs are also referred to as dendrimers to emphasize the branched nature of their structure (Bracci, Falciani et al. 2003). Initial studies with the 139-151 PLP MAP octamers (139MAP) used SJL mice that were first immunized with the encephalitogenic 139-151 PLP peptide in CFA (139CFA) and subsequently injected with saline solutions of 139MAP. […] For this initial study, mice were treated by intraperitoneal or subcutaneous injection with 139MAP on days 2, 7 and 10 following 139CFA injection.

Series [1] deals with adoptively transferred EAE in SJL mice. The series can be described thus: EAE induced by adoptive transfer of PLP(139-151) specific T-cell lines into naive SJL mice. The series is classed as in vivo. The note with it: for additional (relapsing) episodes of EAE: adoptive transfer recipients, treatment initiated after clinical signs of EAE. From the text:
The T-cell lines employed for these studies were derived from SJL mice previously immunized with 139CFA. The T-cell lines are used for adoptive transfer studies following the third round of antigen-stimulation in vitro. The source of antigen presenting cells is irradiated syngeneic thymus cells. This is a procedure that is routinely used by other investigators and is known by those of skill in the art (Bourdette, Vandenbark et al. 1989).
We treated some of the cell recipients with 50 micrograms 139MAP on three consecutive days with treatment initiated after the development of clinical signs of EAE. […] This is very clear in vivo data showing the 139MAP-associated inhibition of rEAE in the SJL mouse model. The 139MAP reagent inhibits the progression of clinically apparent disease as well as the onset and the continued development of EAE in both the actively-induced as well as the adoptively-transferred forms of EAE.

Series [2] deals with antigen specific lymphocytes. Kind of series: Additional studies on lymphoid traffic after 139MAP treatment. The series is classed as in vivo.
Series [3] deals with PLP(139-151) peptide specific T-cell lines. Kind of series: Proliferation of encephalitogenic T-cell line in response to antigen in vitro. The series is classed as cell-based. The note with it: T-cell line from 139CFA-immunized SJL mice.
Series [4] relates to PLP(178-191) induced rEAE in SJL mice. Kind of series: EAE in SJL mice immunized with PLP(178-191) in CFA (antigen specificity). The series is classed as in vivo. Particulars: for disease development: SJL mice immunized with PLP(178-191) in CFA, treated days 2, 7 and 10 (FIG. 5). From the text: The relapsing disease that develops in SJL mice is thought to occur due to the immune response that develops against additional encephalitogenic determinants found in PLP and MBP (Cross, Tuohy et al. 1993). […] Immunization of SJL mice with the PLP(178-191) peptide in CFA caused the development of clinically apparent disease 12-14 days following immunization. […] FIG. 6 represents a second experiment (4 animals per group) in which mice treated with 139MAP after they developed initial signs of EAE due to immunization with the PLP(178-191) peptide.

Series [5] concerns relapsing EAE (rEAE) in SJL mice. The note with it: for relapses (rEAE): 100 microgram doses on two consecutive days after clinical disease evident.
Procedure: Animals are graded as grade 1 when the first sign of disease is evident which is a flaccid tail.
The 139MAP-treated animals were given 100 microgram doses of 139MAP on two consecutive days. […] All reagents were administered on two consecutive days after clinical disease was evident.
The next series deals with diabetes in NOD mice. The note with it: cited from earlier work.

Like-named read-outs stand apart in the source and are kept apart here. No end group written: not given here.

Consider “72-85 amino acid gpMBP peptide monomer: monomer of the 72-85 amino acid peptide of guinea pig myelin basic protein (LPQKSQRSQDENPV; UniProt P25188 72-85, looked up, fragment) [reference compound]”, for which the “clinical signs of EAE” value in the series with EAE in Lewis rats (10 micrograms) is listed as “No diminution of the signs of clinical disease”; in the series with EAE in Lewis rats (50 micrograms), “modest diminution of the clinical signs of EAE”.
Turning to “72-85 gpMBP octamer: chemically synthesized octamers of the 72-85 amino acid peptide of guinea pig myelin basic protein (SEQ ID NO:7) (LPQKSQRSQDENPV; also: octamer on lysine-branched core)”, the “clinical signs of EAE” value in the series on EAE in Lewis rats (10 micrograms) is listed as “developed less severe disease compared to the control group”; in the series on EAE in Lewis rats (50 micrograms) it was “did not develop any signs of clinical disease”. Also, the “development of EAE disease” value in the series with EAE in SJL mice (SJL mice immunized with 139CFA, control octamer, dose not stated (FIG. 3)) is “had no effect of the development of EAE disease”. In series [1], the “additional (relapsing) episodes of EAE” value is listed as “developed a relapsing episode of clinically severe EAE”.
In the case of “139MAP: chemically synthesized octamer of PLP 139-151 peptide (HSLGKWLGHPDKF, SEQ ID NO:8), each linked through KKKKKGG spacer to a lysine-branched core (also: octamer, each linked via KKKKKGG spacer to lysine-branched core (MAP))”, the “lymphoid traffic to the autoimmune target organ” value in series [2] was “alters lymphoid traffic to the autoimmune target organ”. The “T-cell line proliferation in response to antigen” value in series [3] is “proliferated in response”. For the same substance, the “development of clinical signs of EAE” value is on record as “Virtually all signs of disease were prevented” in the series on EAE in SJL mice (SJL mice, 20 micrograms) and “Virtually all signs of disease were prevented” with EAE in SJL mice (SJL mice, 100 micrograms). For the same substance, the “diminution of EAE” value with EAE in SJL mice (SJL mice, three injections of 5 micrograms after 139CFA (FIG. 3)) is reported as “considerable diminution of EAE”. Moreover, the values for the disease development result in series [4] and in series [4] (listed as MAP139 octamer) were “no significant inhibition of disease development” and “does not inhibit the development of PLP(178-191) induced rEAE”, respectively. In series [4] (SJL mice immunized with PLP(178-191), treated after initial signs of EAE), the development of relapses result is listed as “inhibits the development of relapses”. The “continued development of the first episode of disease” value in series [1] (50 micrograms on three consecutive days, initiated after clinical signs of EAE) was “inhibited the continued development of the first episode of disease”. Besides, the “development of adoptively transferred EAE and subsequent relapses” value in series [1] (administered prior to onset of disease or at first indication of disease (tail flaccidity), data not shown) is “completely inhibited”. Moreover, the results for the “additional (relapsing) episodes of EAE” value in series [1] and in series [1] (listed as MAP139 octamer) were “no or very modest signs of additional episodes of EAE” and “inhibits the development of rEAE”, respectively. In addition, the figures for the “relapses (rEAE)” value in series [5] and in series [5] (listed as MAP139 octamer) were “inhibited the relapse component of this disease” and “effectively inhibits rEAE”, respectively. Further, the “subsequent course of disease” value in series [5] (100 microgram doses on two consecutive days after clinical disease evident (grades 1-3)) is “profound and immediate influence on the subsequent course of disease”.
In the case of “B(9-23): peptide of residues 9-23 of the insulin B chain (SEQ ID NO:2) (SHLVEALYLVCGERG)”, in the series on diabetes in NOD mice (peptide therapy), the anaphylaxis result is on record as “development of anaphylaxis”. Moreover, in the series on diabetes in NOD mice (subcutaneous or intranasal administration), the “onset and incidence of diabetes” value was “marked delay in the onset and a decrease in the incidence of diabetes”.

Values taken from patent US20060240032A1, “Immunomodulating compositions and methods for use in the treatment of human autoimmune diseases” (priority 2005, published 2006).
